The test system of the assay is BDF1 mice, P388 leukemia ip, median survival T/C. In words: NCI In Vivo Anticancer Drug Screen. Data for tumor model P388 Leukemia (intraperitoneal) in B6D2F1 (BDF1) mice. The conditions noted are these: endpoint: median survival time, higher = longer survival. The gist of the method:
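Reported as T/C, where T is the survival measurement in dosed animals and C the same measurement in vehicle controls.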

Setting [1] is: dose: 50.0 mg/kg/injection, schedule: Q01DX009 (ip), vehicle: saline with Tween-80.
[2] abbreviates: dose: 100.0 mg/kg/injection, schedule: Q01DX009 (ip), vehicle: saline with Tween-80.
Setting [3] is: dose: 200.0 mg/kg/injection, schedule: Q01DX009 (ip), vehicle: saline with Tween-80.
The mark [4] stands for this setting: dose: 200.0 mg/kg/injection, schedule: Q01DX009 (ip), vehicle: saline.
The mark [5] stands for this setting: dose: 2.0 mg/kg/injection, schedule: Q01DX009 (ip), vehicle: saline.
The mark [6] stands for this setting: dose: 3.0 mg/kg/injection, schedule: Q01DX009 (ip), vehicle: saline.
Setting [7] is: dose: 100.0 mg/kg/injection, schedule: Q04DX003 (ip), vehicle: saline.
Setting [8] is: dose: 25.0 mg/kg/injection, schedule: Q01DX009 (ip), vehicle: saline with Tween-80.

Where “and” joins values, the source holds several entries; their conditions need not be identical. Equal entries are not always repeated. Toxic doses and inconclusive results are not listed.

With `CCCCNC1(C#N)CCN(Cc2ccccc2)CC1`, the T/C by setting is: (dose: 6.0 mg/kg/injection, schedule: Q04DX003 (ip), vehicle: Klucel (hydroxypropylcellulose) (HPC)) 104 % of control; (dose: 12.0 mg/kg/injection, schedule: Q04DX003 (ip), vehicle: Klucel (hydroxypropylcellulose) (HPC)) 100 % of control; (dose: 12.5 mg/kg/injection, schedule: Q01DX009 (ip), vehicle: Klucel (hydroxypropylcellulose) (HPC)) 100 % of control; (dose: 25.0 mg/kg/injection, schedule: Q01DX009 (ip), vehicle: Klucel (hydroxypropylcellulose) (HPC)) 91 % of control; (dose: 25.0 mg/kg/injection, schedule: Q04DX003 (ip), vehicle: Klucel (hydroxypropylcellulose) (HPC)) 96 % of control and 112 % of control.

With `O=[N+]([O-])c1ccc(O)c(C2N(Cc3ccc(N(CCCl)CCCl)cc3)CCCN2Cc2ccc(N(CCCl)CCCl)cc2)c1`, the T/C is, setting by setting: (dose: 12.5 mg/kg/injection, schedule: Q01DX010 (ip), vehicle: carboxymethylcellulose (CMC)) 120 % of control; (dose: 25.0 mg/kg/injection, schedule: Q01DX010 (ip), vehicle: carboxymethylcellulose (CMC)) 120 % of control; (dose: 100.0 mg/kg/injection, schedule: Q01DX010 (ip), vehicle: carboxymethylcellulose (CMC)) 165 % of control.

Regarding `CCCCC(=O)/C=C/c1ccccc1`, the T/C was 102 % of control under setting [1], 109 % of control under setting [2] and 120 % of control under setting [3].

With `CCC(C)C(NS(=O)(=O)c1ccc(C)cc1)C(=O)O` (centres undefined), the T/C is, setting by setting: (dose: 50.0 mg/kg/injection, schedule: Q01DX005 (ip), vehicle: saline with Tween-80) 96 % of control; (dose: 100.0 mg/kg/injection, schedule: Q01DX005 (ip), vehicle: saline with Tween-80) 102 % of control; (dose: 200.0 mg/kg/injection, schedule: Q01DX005 (ip), vehicle: saline with Tween-80) 112 % of control.

With `OCC(O)C1CCCCN1` (centres undefined), the T/C reads like this: (dose: 50.0 mg/kg/injection, schedule: Q01DX009 (ip), vehicle: saline) 104 % of control; (dose: 100.0 mg/kg/injection, schedule: Q01DX009 (ip), vehicle: saline) 106 % of control; under setting [4], 104 % of control.

As for `CN(C)c1ccc(-c2cc[n+](C)cc2)cc1`, the T/C reads like this: (dose: 0.5 mg/kg/injection, schedule: Q01DX009 (ip), vehicle: saline) 119 % of control; (dose: 1.0 mg/kg/injection, schedule: Q01DX009 (ip), vehicle: saline) 111 % of control; under setting [5], 91 % of control; under setting [6], 106 % of control; (dose: 6.0 mg/kg/injection, schedule: Q01DX009 (ip), vehicle: saline) 114 % of control.

In the case of `C/C=C(\C)C(=O)O[C@@H]1c2cc3c(cc2-c2c(cc(OC)c(OC)c2OC)[C@@H]2C(=O)OC[C@@H]12)OCO3`, the T/C (dose: 1.0 mg/kg/injection, schedule: Q01DX009 (ip), vehicle: saline + alcohol) is 100 % of control; the T/C (dose: 1.3 mg/kg/injection, schedule: Q01DX009 (ip), vehicle: saline) was 90 % of control; the T/C (dose: 2.0 mg/kg/injection, schedule: Q01DX009 (ip), vehicle: saline + alcohol) was 100 % of control; the T/C under setting [5] is 100 % of control; the T/C under setting [6] was 100 % of control; the T/C (dose: 4.0 mg/kg/injection, schedule: Q01DX009 (ip), vehicle: saline + alcohol) was 109 % of control. Moreover, the T/C by setting is: (dose: 5.3 mg/kg/injection, schedule: Q01DX009 (ip), vehicle: saline with Tween-80) 110 % of control; (dose: 7.11 mg/kg/injection, schedule: Q01DX009 (ip), vehicle: saline + alcohol) 158 % of control; (dose: 8.0 mg/kg/injection, schedule: Q01DX009 (ip), vehicle: saline + alcohol) 118 % of control; (dose: 8.0 mg/kg/injection, schedule: Q01DX009 (ip), vehicle: saline with Tween-80) 110 % of control; (dose: 10.66 mg/kg/injection, schedule: Q01DX009 (ip), vehicle: saline + alcohol) 95 % of control; (dose: 12.0 mg/kg/injection, schedule: Q01DX009 (ip), vehicle: saline with Tween-80) 110 % of control. Moreover, the T/C (dose: 16.0 mg/kg/injection, schedule: Q01DX009 (ip), vehicle: saline + alcohol) was 91 % of control; the T/C (dose: 21.4 mg/kg/injection, schedule: Q01DX009 (ip), vehicle: saline) was 110 % of control; the T/C (dose: 24.0 mg/kg/injection, schedule: Q01DX009 (ip), vehicle: saline + alcohol) is 100 % of control; the T/C (dose: 32.0 mg/kg/injection, schedule: Q01DX009 (ip), vehicle: saline) was 115 % of control; the T/C (dose: 48.0 mg/kg/injection, schedule: Q01DX009 (ip), vehicle: saline) is 100 % of control and 120 % of control; the T/C (dose: 72.0 mg/kg/injection, schedule: Q01DX009 (ip), vehicle: saline) is 113 % of control. Further, the T/C (dose: 88.0 mg/kg/injection, schedule: Q01DX009 (ip), vehicle: saline) was 95 % of control; the T/C (dose: 108.0 mg/kg/injection, schedule: Q01DX009 (ip), vehicle: saline) is 95 % of control; the T/C (dose: 133.0 mg/kg/injection, schedule: Q01DX009 (ip), vehicle: saline) is 100 % of control; the T/C under setting [4] was 90 % of control.

Consider `O=C(O)C1OC12CCCCC2` (centres undefined), for which the T/C is 91 % of control under setting [7]; 91 % of control (dose: 200.0 mg/kg/injection, schedule: Q04DX003 (ip), vehicle: saline); 91 % of control (dose: 400.0 mg/kg/injection, schedule: Q04DX003 (ip), vehicle: saline).

`CC(C)CN1CCOCC1`: the T/C (dose: 25.0 mg/kg/injection, schedule: Q04DX003 (ip), vehicle: saline) is 95 % of control; the T/C (dose: 50.0 mg/kg/injection, schedule: Q04DX003 (ip), vehicle: saline) was 108 % of control; the T/C under setting [7] was 95 % of control.

For the molecule `O=C(Nc1ccc(C(=O)Nc2ccc(C3=NCCCN3)cc2)cc1)Nc1ccc(C2=NCCCN2)cc1`, the T/C is, setting by setting: (dose: 16.5 mg/kg/injection, schedule: Q04DX003 (ip), vehicle: saline with Tween-80) 122 % of control and 204 % of control; (dose: 25.0 mg/kg/injection, schedule: Q04DX003 (ip), vehicle: saline with Tween-80) 245 % of control and 163 % of control; (dose: 37.5 mg/kg/injection, schedule: Q04DX003 (ip), vehicle: saline with Tween-80) 159 % of control and 186 % of control.

`O=C(CC(O)(C(F)(F)F)C(F)(F)F)c1ccc(Br)cc1`: the T/C reads like this: (dose: 100.0 mg/kg/injection, schedule: Q01DX009 (ip), vehicle: other) 91 % of control; (dose: 100.0 mg/kg/injection, schedule: Q04DX003 (ip), vehicle: other) 120 % of control; (dose: 200.0 mg/kg/injection, schedule: Q01DX009 (ip), vehicle: other) 91 % of control; (dose: 200.0 mg/kg/injection, schedule: Q04DX003 (ip), vehicle: other) 110 % of control; (dose: 400.0 mg/kg/injection, schedule: Q01DX009 (ip), vehicle: other) 91 % of control; (dose: 400.0 mg/kg/injection, schedule: Q04DX003 (ip), vehicle: other) 120 % of control.

For the molecule `CCOC(=O)/C=C(\C)SC1=CC(=O)c2ccccc2C1=O`, the T/C by setting is: (dose: 3.13 mg/kg/injection, schedule: Q01DX009 (ip), vehicle: saline with Tween-80) 102 % of control; (dose: 6.25 mg/kg/injection, schedule: Q01DX009 (ip), vehicle: saline with Tween-80) 104 % of control; (dose: 12.5 mg/kg/injection, schedule: Q01DX009 (ip), vehicle: saline with Tween-80) 112 % of control; under setting [8], 104 % of control.

Regarding `O=C(c1ccccc1)c1cc(-c2ccccc2)n(C2CCCCC2)c1`, the T/C is, setting by setting: under setting [8], 96 % of control; under setting [1], 86 % of control; under setting [2], 94 % of control; under setting [3], 96 % of control.

With `Cc1cc(C)cc(C(O)(c2cc(C)cc(C)c2)c2cc(C)cc(C)c2)c1`, the T/C runs as follows: (dose: 100.0 mg/kg/injection, schedule: Q04DX003 (ip), vehicle: Klucel (hydroxypropylcellulose) (HPC)) 100 % of control; (dose: 200.0 mg/kg/injection, schedule: Q04DX003 (ip), vehicle: Klucel (hydroxypropylcellulose) (HPC)) 90 % of control; (dose: 400.0 mg/kg/injection, schedule: Q04DX003 (ip), vehicle: Klucel (hydroxypropylcellulose) (HPC)) 110 % of control.

For `Ic1ccc(N=Cc2cccs2)cc1`, the T/C is 117 % of control under setting [1]; 99 % of control under setting [2]; 97 % of control under setting [3]; 108 % of control (dose: 400.0 mg/kg/injection, schedule: Q01DX009 (ip), vehicle: saline with Tween-80).

For the origin of these results see PubChem BioAssay AID328 (DTP/NCI, 2004).
